Values after ≈ are worked out from the molar mass of the structure shown. Read-outs that look alike come from different tables or passages of the source.
How the values were obtained:
E. coli Animal (1956) = test: MIC determination, E. coli animal (1956); type: cell-based; conditions: Escherichia coli; Gram-negative; Mueller-Hinton medium, 24 h at 37° C.
Method: (§1) A negative control (2 mL of sterile culture medium)
(§2) A positive control (1940 μL of culture medium+40 μL of DMSO+20 μL of the bacterial suspension) from a thawed biological strain (the biological strains are stored at −80° C. in glycerol).
(§3) The tubes were incubated at 37° C. for 24 hours at 100 rpm.
(§4) The microorganisms were handled under a type L2 laboratory fume cupboard and, before any handling, a UV cycle was programmed and only sterile material was used. […] The chemical compounds to be tested were prepared in a DMSO/methanol mixture (50/50) at a concentration of 5 mg/mL.
(§5) After 24 hours of incubation, a measurement of the optical density was taken using a spectrophotometer at 600 nm, collecting 100 μL of the bacterial suspension diluted in 900 μL of the sterile culture medium. This test required the use of a 96-well plate and the required volume of the microbial suspension to be seeded was calculated for an OD corresponding to a value equal to 0.01 in each well. In this plate, the first line corresponded to the negative control (195 μL of sterile culture medium in each well), the second line corresponded to the positive control (seeded culture medium supplemented with 2% of DMSO), and the third line was loaded twice with bacterial suspension; 8 μL of test product were placed in each well. Thereafter, a 0.5 cascade dilution was performed from this line.
(§6) The first column served as inhibition control. A sterile filter was then placed on the microplate, allowing the passage of gases but not of contaminants. The microplate was incubated at 37° C. under a humid atmosphere for 24 hours.
(§7) NB: The medium used is Mueller-Hinton (MH) medium for bacteria. All the tests were performed in duplicate.
(§8) After incubation, the filter was replaced with a transparent film, and an OD reading was then taken in an iEMS plate spectrophotometer at 620 nm. Calculation of the minimum inhibitory concentration (MIC) was performed.

P. aeruginosa (1051575) = test: Potentiation of doxycycline activity (combination MIC); type: cell-based, Pseudomonas aeruginosa; conditions: for MIC - P. aeruginosa (1051575): content of compound of formula (I) to restore the doxycycline activity (at 2 μg/mL): in presence of doxycycline 2 μg/mL, 24 hours at 37° C.
S. aureus Animal (340) = test: MIC determination, S. aureus animal (340); type: cell-based; conditions: Staphylococcus aureus; Gram-positive; Mueller-Hinton medium, 24 h at 37° C.
Method: as §1, §2, §3, §4, §5, §6, §7, §8

E. coli Human ATCC 28922 = test: MIC determination, E. coli human ATCC 28922; type: cell-based; conditions: Escherichia coli, ATCC28922; Gram-negative; Mueller-Hinton medium, 24 h at 37° C.
Method: as §1, §2, §3, §4, §5, §6, §7, §8

[1] = system: P. aeruginosa Animal (1051575); test: MIC determination, P. aeruginosa animal (1051575); type: cell-based; conditions: Pseudomonas aeruginosa; Gram-negative; Mueller-Hinton medium, 24 h at 37° C.
Method: as §1, §2, §3, §4, §5, §6, §7, §8

[2] = system: P. aeruginosa Human ATCC 27853; test: MIC determination, P. aeruginosa human ATCC 27853; type: cell-based; conditions: Pseudomonas aeruginosa, ATCC27853; Gram-negative; Mueller-Hinton medium, 24 h at 37° C.
Method: as §1, §2, §3, §4, §5, §6, §7, §8

[3] = system: S. intermedius Animal (1051997); test: MIC determination, S. intermedius animal (1051997); type: cell-based; conditions: Staphylococcus intermedius; Gram-positive; Mueller-Hinton medium, 24 h at 37° C.
Method: as §1, §2, §3, §4, §5, §6, §7, §8

[4] = system: S. aureus Human ATCC 25923; test: MIC determination, S. aureus human ATCC 25923; type: cell-based; conditions: Staphylococcus aureus, ATCC25923; Gram-positive; Mueller-Hinton medium, 24 h at 37° C.
Method: as §1, §2, §3, §4, §5, §6, §7, §8

CHO-K1 cells = test: WST1 cytotoxicity test on CHO-K1 cells; type: cell-based, Chinese hamster; conditions: Cricetulus griseus, read-out: IC50 (μg/mL) CHO
Method: Test WST1 was used to measure the cytotoxic activity of the products. This is a colorimetric test which makes it possible to measure the viability and the degree of cell proliferation. It is based on cleavage of the colorless tetrazolium salts WST-1 (4-[3-(4-iodophenyl)-2-(4-nitrophenyl)-2H-5-tetrazolio]-1,3-benzene disulfonate) with mitochondrial dehydrogenases to the yellow-colored formazan derivative, which may be quantified by spectrophotometry at 420-480 nm.
The WST1 test was performed on Chinese hamster ovary cells. The CHO-K1 cells (ATCC, USA) are kept in culture in McCoy's 5A medium supplemented with 10% fetal calf serum, 2 mM of L-glutamine and a mixture of penicillin-streptomycin (100 U/ml: 10 μg/ml). The culture is incubated at 37° C. under an atmosphere enriched in CO2 (5%), and subcultured every two days.
The cells are transferred into 96-well plates (25000 cells/mL) in whole McCoy's 5A medium, and maintained for 24 hours at 37° C. under a humid atmosphere enriched in CO2 (5%). Increasing concentrations of test products are added to the wells in double tests and 8 growth controls containing the cells in the medium alone are included in each series of tests. After 24 hours at 37° C. (5% CO2), the culture medium is removed, the cells are rinsed in phosphate buffer (PBS) and 50 μL of PBS containing 10% of reagent WST1 are added to each well. After 20 minutes of incubation at 37° C., the results are read by spectrophotometry at 450 nm.
The results are expressed in dose-response relationships, modeled by nonlinear regression analysis using the TableCurve software. The 50% inhibitory concentration (IC50) represents the concentration of product that is capable of reducing the cell viability by 50%.

[5] = system: E. faecalis Human ATCC 29212; test: MIC determination, E. faecalis human ATCC 29212; type: cell-based; conditions: Enterococcus faecalis, ATCC29212; Gram-positive; Mueller-Hinton medium, 24 h at 37° C.
Method: as §1, §2, §3, §4, §5, §6, §7, §8

Compound | MIC (E. coli Animal (1956)) [µg/mL] | MIC - P. aeruginosa (1051575): content of compound of formula (I) to restore the doxycycline activity (at 2 μg/mL) (P. aeruginosa (1051575)) [µg/mL] | MIC (S. aureus Animal (340)) [µg/mL] | MIC (E. coli Human ATCC 28922) [µg/mL] | MIC [1] [µg/mL] | MIC [2] [µg/mL] | MIC [3] [µg/mL] | MIC [4] [µg/mL] | IC50 (CHO-K1 cells; CHO-K1, 24 h) [µg/mL] | synergism when administered with doxycycline (P. aeruginosa (1051575); doxycycline at 2 μg/mL) | MIC [5] [µg/mL] | IC50 (CHO-K1 cells; Table III, WST1 test, CHO-K1 cells, 24 hours) [µg/mL]
CCN(CC)C(=O)CC[C@@H](C)[C@H]1CCC2C3C(CC[C@@]21C)[C@@]1(C)CC[C@H](NCCCNCCCNCCCN)CC1C[C@H]3O (stereo partly drawn) [(39), 3β-norspermino-N,N-diethylchenodeoxycholamide] | 4 (≈ 6.47 µM) | 2 | 1 (≈ 1.62 µM) | 120 (≈ 194 µM) | 8 (≈ 12.9 µM) | 15 (≈ 24.3 µM) | 1 (≈ 1.62 µM) | 2 (≈ 3.24 µM) | – | – | – | –
CC(C)NC(=O)CC[C@@H](C)[C@H]1CCC2C3C(CC[C@@]21C)[C@@]1(C)CC[C@H](NCCCN2CCN(CCCN)CC2)CC1C[C@H]3O (stereo partly drawn) [(9), 3β-(1,4-bis(3-aminopropyl)piperazine)-N-isopropylchenodeoxycholamide] | 15 (≈ 24.4 µM) | 2 | 8 (≈ 13 µM) | 15 (≈ 24.4 µM) | 62 (≈ 101 µM) | 124 (≈ 201 µM) | 8 (≈ 13 µM) | 16 (≈ 26 µM) | 90 (≈ 146 µM) | noteworthy synergism | 62 (≈ 101 µM) | –
C[C@H](CCC(=O)NC1CCCCC1)[C@H]1CCC2C3C(CC[C@@]21C)[C@@]1(C)CC[C@H](NCCCNCCCN)CC1C[C@H]3O (stereo partly drawn) [(38), 3β-norspermidino-N-cyclohexylchenodeoxycholamide] | 15 (≈ 25.6 µM) | 2 | 4 (≈ 6.81 µM) | 30 (≈ 51.1 µM) | 30 (≈ 51.1 µM) | 30 (≈ 51.1 µM) | 2 (≈ 3.41 µM) | 4 (≈ 6.81 µM) | 12 (≈ 20.4 µM) | – | 4 (≈ 6.81 µM) | –
CC(C)N(C(=O)CC[C@@H](C)[C@H]1CCC2C3C(CC[C@@]21C)[C@@]1(C)CC[C@H](NCCCNCCNCCCN)CC1C[C@H]3O)C(C)C (stereo partly drawn) [(54), 3β-(bis(3-aminopropyl)ethylenediamine)-N,N-diisopropylchenodeoxycholamide] | 8 (≈ 12.7 µM) | 2 | 4 (≈ 6.33 µM) | 125 (≈ 198 µM) | 16 (≈ 25.3 µM) | 32 (≈ 50.6 µM) | 2 (≈ 3.16 µM) | 4 (≈ 6.33 µM) | 22 (≈ 34.8 µM) | – | 2 (≈ 3.16 µM) | –
CC(C)NC(=O)CC[C@@H](C)[C@H]1CCC2C3C(CC[C@@]21C)[C@@]1(C)CC[C@H](NCCCNCCCNCCCN)CC1C[C@@H]3O (stereo partly drawn) [(14), 3β-norspermino-N-isopropylursodeoxycholamide] | 128 (≈ 212 µM) | 1 | 32 (≈ 53 µM) | 128 (≈ 212 µM) | 128 (≈ 212 µM) | 64 (≈ 106 µM) | 4 (≈ 6.62 µM) | 16 (≈ 26.5 µM) | 90 (≈ 149 µM) | – | 128 (≈ 212 µM) | –
CCN(CC)C(=O)CC[C@@H](C)[C@H]1CCC2C3C(CC[C@@]21C)[C@@]1(C)CC[C@H](NCCCNCCNCCCN)CC1C[C@H]3O (stereo partly drawn) [(53), 3β-(bis(3-aminopropyl)ethylenediamine)-N,N-diethylchenodeoxycholamide] | 15 (≈ 24.8 µM) | 2 | 4 (≈ 6.62 µM) | 60 (≈ 99.3 µM) | 15 (≈ 24.8 µM) | 30 (≈ 49.7 µM) | 2 (≈ 3.31 µM) | 4 (≈ 6.62 µM) | 30 (≈ 49.7 µM) | – | 2 (≈ 3.31 µM) | –
CC(C)NC(=O)CC[C@@H](C)[C@H]1CCC2C3CCC4C[C@@H](NCCCNCCCN)CC[C@]4(C)C3CC[C@@]21C (stereo partly drawn) [(18), 3β-norspermidino-N-isopropyllithocholamide] | 3 (≈ 5.65 µM) | 0.8 | 3 (≈ 5.65 µM) | 26 (≈ 49 µM) | 26 (≈ 49 µM) | 104 (≈ 196 µM) | 0.8 (≈ 1.51 µM) | 6 (≈ 11.3 µM) | 20 (≈ 37.7 µM) | – | 12 (≈ 22.6 µM) | –
CC(C)NC(=O)CC[C@@H](C)[C@H]1CCC2C3C(CC[C@@]21C)[C@@]1(C)CC[C@H](NCCNCCNCCNCCNCCN)CC1C[C@H]3O (stereo partly drawn) [(22), 3β-(pentaethylenehexamine)-N-isopropylchenodeoxycholamide] | 32 (≈ 49.4 µM) | 4 | 8 (≈ 12.3 µM) | 32 (≈ 49.4 µM) | 65 (≈ 100 µM) | 130 (≈ 201 µM) | 2 (≈ 3.09 µM) | 8 (≈ 12.3 µM) | 120 (≈ 185 µM) | – | 32 (≈ 49.4 µM) | –
CC(C)NC(=O)CC[C@@H](C)[C@H]1CCC2C3CCC4C[C@@H](NCCNCCNCCNCCNCCN)CC[C@]4(C)C3C[C@H](O)[C@@]21C (stereo partly drawn) [(20), 3β-(pentaethylenehexamine)-N-isopropyldeoxycholamide] | 16 (≈ 24.7 µM) | 4 | 8 (≈ 12.3 µM) | 8 (≈ 12.3 µM) | 32 (≈ 49.4 µM) | 32 (≈ 49.4 µM) | 4 (≈ 6.17 µM) | 8 (≈ 12.3 µM) | 18 (≈ 27.8 µM) | – | 8 (≈ 12.3 µM) | –
CC(C)NC(=O)CC[C@@H](C)[C@H]1CCC2C3C(CC[C@@]21C)[C@@]1(C)CC[C@H](NCCCN(C)CCCN)CC1C[C@@H]3O (stereo partly drawn) [(28), 3β-(bis(3-aminopropyl)methylamine)-N-isopropylursodeoxycholamide] | 112 (≈ 200 µM) | 7 | 28 (≈ 49.9 µM) | 56 (≈ 99.8 µM) | 112 (≈ 200 µM) | 112 (≈ 200 µM) | 14 (≈ 25 µM) | 28 (≈ 49.9 µM) | 28 (≈ 49.9 µM) | – | 56 (≈ 99.8 µM) | –
CC(C)NC(=O)CC[C@@H](C)[C@H]1CCC2C3C(CC[C@@]21C)[C@@]1(C)CC[C@H](NCCCN2CCN(CCCN)CC2)CC1C[C@@H]3O (stereo partly drawn) [(16), 3β-(1,4-bis(3-aminopropyl)piperazine)-N-isopropylursodeoxycholamide] | 120 (≈ 195 µM) | – | 60 (≈ 97.4 µM) | 60 (≈ 97.4 µM) | > 120 | > 120 | 15 (≈ 24.4 µM) | 60 (≈ 97.4 µM) | – | – | 120 (≈ 195 µM) | –
CC(C)NC(=O)CC[C@@H](C)[C@H]1CCC2C3C(CC[C@@]21C)[C@@]1(C)CC[C@H](NCCNCCNCCNCCNCCN)CC1C[C@@H]3O (stereo partly drawn) [(23), 3β-(pentaethylenehexamine)-N-isopropylursodeoxycholamide] | 128 (≈ 198 µM) | – | 32 (≈ 49.4 µM) | 128 (≈ 198 µM) | 128 (≈ 198 µM) | 128 (≈ 198 µM) | 16 (≈ 24.7 µM) | 32 (≈ 49.4 µM) | – | – | 64 (≈ 98.8 µM) | 115 (≈ 177 µM)

— US10780101B2, “Amide derivatives of squalamine for the treatment of infections” (VIRBAC, priority 2016, dated 2020)
